Assay results published in the kinase profiling compilation of Christmann-Franck et al. (2016).

How the values were obtained:
Assay in all cases: radiometric filter-binding kinase assay
MAP3K7 TAB1 (human) = MAP3K7 TAB1 (human) (UniProt Q15750+O43318)
ROCK2 (rat) = details: accession and sequence are those of the human protein
FGFR1 (human) = FGFR1 (human) (UniProt P11362)
PRKCZ (human) = PRKCZ (human) (UniProt Q05513)
MAPK11 (human) = MAPK11 (human) (UniProt Q15759)
HIPK1 (human) = HIPK1 (human) (UniProt Q86Z02)
Sequence of HIPK1 (human) (Q86Z02 whole entry, looked up): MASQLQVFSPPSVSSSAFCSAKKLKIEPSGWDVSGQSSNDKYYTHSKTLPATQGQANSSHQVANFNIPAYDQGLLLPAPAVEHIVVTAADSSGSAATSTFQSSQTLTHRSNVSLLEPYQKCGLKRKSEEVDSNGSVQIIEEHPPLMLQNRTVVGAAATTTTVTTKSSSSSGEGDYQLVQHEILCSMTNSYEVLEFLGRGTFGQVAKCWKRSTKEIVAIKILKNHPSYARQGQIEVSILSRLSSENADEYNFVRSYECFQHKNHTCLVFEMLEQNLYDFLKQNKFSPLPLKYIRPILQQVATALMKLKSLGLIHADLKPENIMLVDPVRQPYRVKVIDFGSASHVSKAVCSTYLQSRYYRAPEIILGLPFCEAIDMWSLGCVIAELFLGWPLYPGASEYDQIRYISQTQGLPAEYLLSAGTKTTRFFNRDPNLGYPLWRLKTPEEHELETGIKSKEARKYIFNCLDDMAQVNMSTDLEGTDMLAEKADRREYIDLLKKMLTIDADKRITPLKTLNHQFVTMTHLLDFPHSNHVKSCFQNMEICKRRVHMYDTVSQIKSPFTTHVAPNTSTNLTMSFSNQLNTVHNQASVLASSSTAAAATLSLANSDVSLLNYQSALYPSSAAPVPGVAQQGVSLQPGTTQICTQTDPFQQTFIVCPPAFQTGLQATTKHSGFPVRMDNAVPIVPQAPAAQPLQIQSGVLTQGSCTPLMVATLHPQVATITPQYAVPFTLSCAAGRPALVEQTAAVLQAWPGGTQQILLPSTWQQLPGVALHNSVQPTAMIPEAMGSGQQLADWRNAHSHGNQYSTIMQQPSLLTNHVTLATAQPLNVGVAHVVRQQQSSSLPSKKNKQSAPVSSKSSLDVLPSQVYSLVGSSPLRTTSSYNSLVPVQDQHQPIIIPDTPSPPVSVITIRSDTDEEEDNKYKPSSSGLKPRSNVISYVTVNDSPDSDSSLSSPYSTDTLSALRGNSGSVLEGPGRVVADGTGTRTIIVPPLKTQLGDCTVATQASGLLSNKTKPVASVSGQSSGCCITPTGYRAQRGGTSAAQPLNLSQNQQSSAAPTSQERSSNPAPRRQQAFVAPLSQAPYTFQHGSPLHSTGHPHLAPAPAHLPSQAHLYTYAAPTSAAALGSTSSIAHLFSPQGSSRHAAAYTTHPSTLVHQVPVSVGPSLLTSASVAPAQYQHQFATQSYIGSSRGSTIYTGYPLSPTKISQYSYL

TAOK1 (human) = TAOK1 (human) (UniProt Q7L7X3)
SRC (human) = SRC (human) (UniProt P12931)
Sequence of SRC (human) (P12931 whole entry, looked up): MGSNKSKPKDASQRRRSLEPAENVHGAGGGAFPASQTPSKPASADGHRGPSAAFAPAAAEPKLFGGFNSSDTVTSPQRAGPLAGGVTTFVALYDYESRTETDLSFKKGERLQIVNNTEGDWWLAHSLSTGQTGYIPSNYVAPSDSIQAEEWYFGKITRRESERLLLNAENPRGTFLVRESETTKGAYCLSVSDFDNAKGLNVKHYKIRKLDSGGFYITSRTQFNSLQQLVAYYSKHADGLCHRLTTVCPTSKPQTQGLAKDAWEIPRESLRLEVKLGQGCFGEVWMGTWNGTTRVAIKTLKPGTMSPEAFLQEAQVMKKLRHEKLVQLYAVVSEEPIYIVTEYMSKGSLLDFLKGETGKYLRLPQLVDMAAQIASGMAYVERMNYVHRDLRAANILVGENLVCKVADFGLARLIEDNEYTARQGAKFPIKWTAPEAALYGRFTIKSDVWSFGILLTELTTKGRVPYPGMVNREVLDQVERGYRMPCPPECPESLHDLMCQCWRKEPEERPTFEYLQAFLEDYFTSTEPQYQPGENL

[1] = system: AKT2 (human), P31751 [S474D]
EPHA2 (human) = EPHA2 (human) (UniProt P29317)
MAPKAPK5 (human) = MAPKAPK5 (human) (UniProt Q8IW41)
MINK1 (human) = MINK1 (human) (UniProt Q8N4C8)
IRAK4 (human) = IRAK4 (human) (UniProt Q9NWZ3)
CLK2 (human) = CLK2 (human) (UniProt P49760)
RIPK2 (human) = RIPK2 (human) (UniProt O43353)
MAPK14 (human) = MAPK14 (human) (UniProt Q16539)
IGF1R (human) = IGF1R (human) (UniProt P08069)
MAPK15 (human) = MAPK15 (human) (UniProt Q8TD08)
Sequence of MAPK15 (human) (Q8TD08 whole entry, looked up): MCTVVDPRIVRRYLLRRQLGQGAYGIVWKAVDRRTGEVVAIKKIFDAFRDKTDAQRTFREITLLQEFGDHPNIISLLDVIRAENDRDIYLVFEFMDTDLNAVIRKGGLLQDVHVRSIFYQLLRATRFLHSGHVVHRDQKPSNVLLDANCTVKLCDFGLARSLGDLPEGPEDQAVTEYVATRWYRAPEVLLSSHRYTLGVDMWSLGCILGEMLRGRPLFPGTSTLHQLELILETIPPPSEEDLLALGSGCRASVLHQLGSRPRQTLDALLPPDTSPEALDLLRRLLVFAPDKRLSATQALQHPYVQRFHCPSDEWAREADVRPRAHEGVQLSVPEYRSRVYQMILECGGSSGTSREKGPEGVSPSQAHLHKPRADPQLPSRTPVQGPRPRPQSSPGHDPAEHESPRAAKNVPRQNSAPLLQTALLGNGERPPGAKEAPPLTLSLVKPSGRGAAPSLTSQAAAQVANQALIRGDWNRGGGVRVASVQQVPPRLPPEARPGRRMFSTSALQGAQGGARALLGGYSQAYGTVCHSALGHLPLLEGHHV

CSK (human) = CSK (human) (UniProt P41240)
CAMKK2 (human) = CAMKK2 (human) (UniProt Q96RR4)
DYRK3 (human) = DYRK3 (human) (UniProt O43781)
MARK1 (human) = MARK1 (human) (UniProt Q9P0L2)
CSNK1D (human) = CSNK1D (human) (UniProt P48730)
Sequence of CSNK1D (human) (P48730 whole entry, looked up): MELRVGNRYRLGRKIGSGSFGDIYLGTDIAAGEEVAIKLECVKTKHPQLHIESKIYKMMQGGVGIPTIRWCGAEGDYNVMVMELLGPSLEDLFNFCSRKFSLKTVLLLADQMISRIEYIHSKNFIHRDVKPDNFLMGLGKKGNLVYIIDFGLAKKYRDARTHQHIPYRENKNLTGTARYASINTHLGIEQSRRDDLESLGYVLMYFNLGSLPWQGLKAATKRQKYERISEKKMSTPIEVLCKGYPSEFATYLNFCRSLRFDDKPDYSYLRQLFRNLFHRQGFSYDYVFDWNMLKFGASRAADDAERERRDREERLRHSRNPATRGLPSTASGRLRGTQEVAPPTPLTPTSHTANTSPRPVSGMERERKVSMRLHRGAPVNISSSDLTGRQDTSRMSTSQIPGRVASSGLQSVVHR

MAP3K1 (human) = MAP3K1 (human) (UniProt Q13233)
Sequence of MAP3K1 (human) (Q13233 whole entry, looked up): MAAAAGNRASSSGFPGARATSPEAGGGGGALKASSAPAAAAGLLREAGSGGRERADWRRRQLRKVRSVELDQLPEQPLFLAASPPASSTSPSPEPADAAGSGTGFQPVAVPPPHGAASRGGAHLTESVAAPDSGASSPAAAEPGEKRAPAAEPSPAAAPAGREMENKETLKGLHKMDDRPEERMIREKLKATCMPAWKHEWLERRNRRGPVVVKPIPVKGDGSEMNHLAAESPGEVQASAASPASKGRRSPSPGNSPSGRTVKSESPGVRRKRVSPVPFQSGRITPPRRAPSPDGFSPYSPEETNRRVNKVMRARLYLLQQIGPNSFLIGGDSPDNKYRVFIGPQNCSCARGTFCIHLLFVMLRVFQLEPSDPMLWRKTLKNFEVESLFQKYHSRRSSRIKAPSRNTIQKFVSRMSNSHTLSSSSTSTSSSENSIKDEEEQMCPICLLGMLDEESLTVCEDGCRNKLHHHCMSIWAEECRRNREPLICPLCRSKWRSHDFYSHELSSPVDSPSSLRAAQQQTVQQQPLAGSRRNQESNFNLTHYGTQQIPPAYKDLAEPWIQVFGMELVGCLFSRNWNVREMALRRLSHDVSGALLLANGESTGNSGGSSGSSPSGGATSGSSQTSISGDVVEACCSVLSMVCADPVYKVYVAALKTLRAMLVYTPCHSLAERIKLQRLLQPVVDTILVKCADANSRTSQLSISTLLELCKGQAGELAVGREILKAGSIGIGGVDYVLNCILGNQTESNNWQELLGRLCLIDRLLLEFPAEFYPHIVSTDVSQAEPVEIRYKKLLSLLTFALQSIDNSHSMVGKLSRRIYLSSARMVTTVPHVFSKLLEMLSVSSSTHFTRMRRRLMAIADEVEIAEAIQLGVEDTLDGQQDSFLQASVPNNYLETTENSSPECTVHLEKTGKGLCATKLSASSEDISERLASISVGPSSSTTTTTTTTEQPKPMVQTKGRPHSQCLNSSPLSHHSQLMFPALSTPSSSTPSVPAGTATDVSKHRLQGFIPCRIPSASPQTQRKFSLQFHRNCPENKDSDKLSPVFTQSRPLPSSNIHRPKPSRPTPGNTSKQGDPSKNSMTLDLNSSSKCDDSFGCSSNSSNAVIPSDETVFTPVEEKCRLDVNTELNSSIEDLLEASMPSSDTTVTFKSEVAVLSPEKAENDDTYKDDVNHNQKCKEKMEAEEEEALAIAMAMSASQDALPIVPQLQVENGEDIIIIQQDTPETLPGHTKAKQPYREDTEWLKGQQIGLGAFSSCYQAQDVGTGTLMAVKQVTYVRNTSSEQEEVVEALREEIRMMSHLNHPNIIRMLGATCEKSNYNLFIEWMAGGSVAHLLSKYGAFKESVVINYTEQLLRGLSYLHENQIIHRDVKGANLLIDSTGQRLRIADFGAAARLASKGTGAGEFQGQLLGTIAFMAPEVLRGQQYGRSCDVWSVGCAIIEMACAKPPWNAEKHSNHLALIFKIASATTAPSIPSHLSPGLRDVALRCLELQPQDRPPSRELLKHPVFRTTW

MELK (human) = MELK (human) (UniProt Q14680)
HIPK3 (human) = HIPK3 (human) (UniProt Q9H422)
GSK3B (human) = GSK3B (human) (UniProt P49841)
LCK (mouse) = details: accession and sequence are those of the human protein
JAK2 JH1 JH2 (human) = JAK2 JH1 JH2 (human) (UniProt O60674)
[2] = biological target: STK11 CAB39 STRADA (human) (UniProt Q9Y376+Q7RTN6+Q15831)
NTRK1 (human) = NTRK1 (human) (UniProt P04629)
INSR (human) = INSR (human) (UniProt P06213)
BRSK1 (human) = BRSK1 (human) (UniProt Q8TDC3)
Sequence of BRSK1 (human) (Q8TDC3 whole entry, looked up): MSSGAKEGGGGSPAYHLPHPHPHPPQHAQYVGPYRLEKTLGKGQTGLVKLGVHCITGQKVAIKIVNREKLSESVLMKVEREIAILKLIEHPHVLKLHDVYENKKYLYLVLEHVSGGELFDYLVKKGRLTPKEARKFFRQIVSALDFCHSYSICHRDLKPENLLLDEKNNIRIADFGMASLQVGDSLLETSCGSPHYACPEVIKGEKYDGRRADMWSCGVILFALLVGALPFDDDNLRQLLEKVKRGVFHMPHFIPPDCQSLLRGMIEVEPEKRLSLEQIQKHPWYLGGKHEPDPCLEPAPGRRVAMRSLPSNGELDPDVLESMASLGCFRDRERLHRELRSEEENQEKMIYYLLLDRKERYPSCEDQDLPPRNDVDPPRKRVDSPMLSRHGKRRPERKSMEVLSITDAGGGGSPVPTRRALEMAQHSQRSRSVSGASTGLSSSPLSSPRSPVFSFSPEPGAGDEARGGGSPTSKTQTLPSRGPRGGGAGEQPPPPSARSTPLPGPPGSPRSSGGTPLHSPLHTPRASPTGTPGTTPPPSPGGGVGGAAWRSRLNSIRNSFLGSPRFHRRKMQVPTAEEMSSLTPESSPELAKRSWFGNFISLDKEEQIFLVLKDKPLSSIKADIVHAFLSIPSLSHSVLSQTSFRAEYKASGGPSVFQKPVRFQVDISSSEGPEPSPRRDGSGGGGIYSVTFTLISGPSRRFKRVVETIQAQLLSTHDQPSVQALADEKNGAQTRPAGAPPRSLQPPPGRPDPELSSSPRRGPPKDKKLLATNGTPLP

FLT1 (human) = FLT1 (human) (UniProt P17948)
RPS6KA3 KD1 KD2 (human) = RPS6KA3 KD1 KD2 (human) (UniProt P51812)

COc1cc(O)c2c(c1)/C=C/C[C@H](O)[C@H](O)C(=O)/C=C\C[C@H](C)OC2=O
residual activity (MAP3K7 TAB1 (human); compound 0.1 µM): 5%
residual activity (MAP3K7 TAB1 (human); compound 1.0 µM): 3%
residual activity (ROCK2 (rat); compound 0.1 µM): 116%
residual activity (ROCK2 (rat); compound 1.0 µM): 83%
residual activity (FGFR1 (human); compound 1.0 µM): 87%
residual activity (PRKCZ (human); compound 0.1 µM): 105%
residual activity (PRKCZ (human); compound 1.0 µM): 99%
residual activity (MAPK11 (human); compound 0.1 µM): 90%
residual activity (MAPK11 (human); compound 1.0 µM): 72%
residual activity (HIPK1 (human); compound 0.1 µM): 102%
residual activity (HIPK1 (human); compound 1.0 µM): 98%
residual activity (TAOK1 (human); compound 0.1 µM): 103%
residual activity (TAOK1 (human); compound 1.0 µM): 66%
residual activity (SRC (human); compound 0.1 µM): 106%
residual activity (SRC (human); compound 1.0 µM): 43%
residual activity ([1]; compound 0.1 µM): 86%
residual activity ([1]; compound 1.0 µM): 84%
residual activity (EPHA2 (human); compound 0.1 µM): 99%
residual activity (EPHA2 (human); compound 1.0 µM): 55%
residual activity (MAPKAPK5 (human); compound 0.1 µM): 66%
residual activity (MAPKAPK5 (human); compound 1.0 µM): 14%
residual activity (MINK1 (human); compound 0.1 µM): 101%
residual activity (MINK1 (human); compound 1.0 µM): 83%
residual activity (IRAK4 (human); compound 0.1 µM): 99%
residual activity (IRAK4 (human); compound 1.0 µM): 28%
residual activity (CLK2 (human); compound 0.1 µM): 96%
residual activity (CLK2 (human); compound 1.0 µM): 90%
residual activity (RIPK2 (human); compound 0.1 µM): 103%
residual activity (RIPK2 (human); compound 1.0 µM): 39%
residual activity (MAPK14 (human); compound 0.1 µM): 103%
residual activity (MAPK14 (human); compound 1.0 µM): 85%
residual activity (IGF1R (human); compound 0.1 µM): 100%
residual activity (IGF1R (human); compound 1.0 µM): 93%
residual activity (MAPK15 (human); compound 0.1 µM): 40%
residual activity (MAPK15 (human); compound 1.0 µM): 4%
residual activity (CSK (human); compound 0.1 µM): 118%
residual activity (CSK (human); compound 1.0 µM): 56%
residual activity (CAMKK2 (human); compound 0.1 µM): 87%
residual activity (CAMKK2 (human); compound 1.0 µM): 57%
residual activity (DYRK3 (human); compound 0.1 µM): 94%
residual activity (DYRK3 (human); compound 1.0 µM): 101%
residual activity (MARK1 (human); compound 0.1 µM): 112%
residual activity (MARK1 (human); compound 1.0 µM): 99%
residual activity (CSNK1D (human); compound 0.1 µM): 102%
residual activity (CSNK1D (human); compound 1.0 µM): 104%
residual activity (MAP3K1 (human); compound 0.1 µM): 107%
residual activity (MAP3K1 (human); compound 1.0 µM): 92%
residual activity (MELK (human); compound 0.1 µM): 95%
residual activity (MELK (human); compound 1.0 µM): 94%
residual activity (HIPK3 (human); compound 0.1 µM): 90%
residual activity (HIPK3 (human); compound 1.0 µM): 103%
residual activity (GSK3B (human); compound 0.1 µM): 102%
residual activity (GSK3B (human); compound 1.0 µM): 74%
residual activity (LCK (mouse); compound 0.1 µM): 78%
residual activity (LCK (mouse); compound 1.0 µM): 30%
residual activity (JAK2 JH1 JH2 (human); compound 0.1 µM): 108%
residual activity (JAK2 JH1 JH2 (human); compound 1.0 µM): 75%
residual activity ([2]; compound 0.1 µM): 138%
residual activity ([2]; compound 1.0 µM): 65%
residual activity (NTRK1 (human); compound 0.1 µM): 46%
residual activity (NTRK1 (human); compound 1.0 µM): 24%
residual activity (INSR (human); compound 0.1 µM): 110%
residual activity (INSR (human); compound 1.0 µM): 94%
residual activity (BRSK1 (human); compound 0.1 µM): 113%
residual activity (BRSK1 (human); compound 1.0 µM): 90%
residual activity (FLT1 (human); compound 0.1 µM): 8%
residual activity (FLT1 (human); compound 1.0 µM): 13%
residual activity (RPS6KA3 KD1 KD2 (human); compound 0.1 µM): 106%
residual activity (RPS6KA3 KD1 KD2 (human); compound 1.0 µM): 70%

Cc1ccc2c(c1)C(=O)[C@@]1(O)CCN(c3ccccc3)C1=N2
residual activity (MAP3K7 TAB1 (human); compound 10.0 µM): 96%
residual activity (ROCK2 (rat); compound 10.0 µM): 77%
residual activity (ROCK2 (rat); compound 100.0 µM): 76%
residual activity (FGFR1 (human); compound 10.0 µM): 118%
residual activity (PRKCZ (human); compound 10.0 µM): 108%
residual activity (MAPK11 (human); compound 10.0 µM): 82%
residual activity (MAPK11 (human); compound 100.0 µM): 71%
residual activity (HIPK1 (human); compound 10.0 µM): 88%
residual activity (TAOK1 (human); compound 10.0 µM): 82%
residual activity (SRC (human); compound 10.0 µM): 80%
residual activity ([1]; compound 10.0 µM): 74%
residual activity (EPHA2 (human); compound 10.0 µM): 109%
residual activity (MAPKAPK5 (human); compound 10.0 µM): 82%
residual activity (MAPKAPK5 (human); compound 100.0 µM): 64%
residual activity (MINK1 (human); compound 10.0 µM): 72%
residual activity (IRAK4 (human); compound 10.0 µM): 86%
residual activity (CLK2 (human); compound 10.0 µM): 87%
residual activity (RIPK2 (human); compound 10.0 µM): 90%
residual activity (MAPK14 (human); compound 10.0 µM): 101%
residual activity (MAPK14 (human); compound 100.0 µM): 80%
residual activity (IGF1R (human); compound 10.0 µM): 88%
residual activity (MAPK15 (human); compound 10.0 µM): 89%
residual activity (CSK (human); compound 10.0 µM): 69%
residual activity (CSK (human); compound 100.0 µM): 67%
residual activity (CAMKK2 (human); compound 10.0 µM): 90%
residual activity (DYRK3 (human); compound 10.0 µM): 99%
residual activity (MARK1 (human); compound 10.0 µM): 96%
residual activity (CSNK1D (human); compound 10.0 µM): 99%
residual activity (CSNK1D (human); compound 100.0 µM): 91%
residual activity (MAP3K1 (human); compound 10.0 µM): 100%
residual activity (MELK (human); compound 10.0 µM): 96%
residual activity (HIPK3 (human); compound 10.0 µM): 103%
residual activity (GSK3B (human); compound 10.0 µM): 88%
residual activity (GSK3B (human); compound 100.0 µM): 66%
residual activity (LCK (mouse); compound 10.0 µM): 106%
residual activity (LCK (mouse); compound 100.0 µM): 72%
residual activity (JAK2 JH1 JH2 (human); compound 10.0 µM): 101%
residual activity ([2]; compound 10.0 µM): 81%
residual activity (NTRK1 (human); compound 10.0 µM): 103%
residual activity (INSR (human); compound 10.0 µM): 95%
residual activity (BRSK1 (human); compound 10.0 µM): 106%
residual activity (FLT1 (human); compound 10.0 µM): 85%
residual activity (RPS6KA3 KD1 KD2 (human); compound 10.0 µM): 72%
